Among the data in the Kinase Knowledgebase extract (Sharma et al. 2016) are IC50 values, retold here.

Molecules are shown by their SMILES.

The target of experiment [1] is PIK3CD (Human) (UniProt O00329). As to the kind of experiment: Cell-Based Assay. To be noted: raji.
A further experiment concerns the target PIK3CB (Human) (UniProt P42338). As to the kind of experiment: Enzyme Assay.
The next experiment addresses PIK3CG (human) (UniProt P48736). As to the kind of experiment: Enzyme Assay.
Experiment [2] addresses PIK3CD (Human) (UniProt O00329). As to the kind of experiment: Enzyme Assay.
The target in a further experiment is PIK3CA (human) (UniProt P42336). As to the kind of experiment: Enzyme Assay.
PIK3CA (human), sequence (P42336 whole entry, looked up): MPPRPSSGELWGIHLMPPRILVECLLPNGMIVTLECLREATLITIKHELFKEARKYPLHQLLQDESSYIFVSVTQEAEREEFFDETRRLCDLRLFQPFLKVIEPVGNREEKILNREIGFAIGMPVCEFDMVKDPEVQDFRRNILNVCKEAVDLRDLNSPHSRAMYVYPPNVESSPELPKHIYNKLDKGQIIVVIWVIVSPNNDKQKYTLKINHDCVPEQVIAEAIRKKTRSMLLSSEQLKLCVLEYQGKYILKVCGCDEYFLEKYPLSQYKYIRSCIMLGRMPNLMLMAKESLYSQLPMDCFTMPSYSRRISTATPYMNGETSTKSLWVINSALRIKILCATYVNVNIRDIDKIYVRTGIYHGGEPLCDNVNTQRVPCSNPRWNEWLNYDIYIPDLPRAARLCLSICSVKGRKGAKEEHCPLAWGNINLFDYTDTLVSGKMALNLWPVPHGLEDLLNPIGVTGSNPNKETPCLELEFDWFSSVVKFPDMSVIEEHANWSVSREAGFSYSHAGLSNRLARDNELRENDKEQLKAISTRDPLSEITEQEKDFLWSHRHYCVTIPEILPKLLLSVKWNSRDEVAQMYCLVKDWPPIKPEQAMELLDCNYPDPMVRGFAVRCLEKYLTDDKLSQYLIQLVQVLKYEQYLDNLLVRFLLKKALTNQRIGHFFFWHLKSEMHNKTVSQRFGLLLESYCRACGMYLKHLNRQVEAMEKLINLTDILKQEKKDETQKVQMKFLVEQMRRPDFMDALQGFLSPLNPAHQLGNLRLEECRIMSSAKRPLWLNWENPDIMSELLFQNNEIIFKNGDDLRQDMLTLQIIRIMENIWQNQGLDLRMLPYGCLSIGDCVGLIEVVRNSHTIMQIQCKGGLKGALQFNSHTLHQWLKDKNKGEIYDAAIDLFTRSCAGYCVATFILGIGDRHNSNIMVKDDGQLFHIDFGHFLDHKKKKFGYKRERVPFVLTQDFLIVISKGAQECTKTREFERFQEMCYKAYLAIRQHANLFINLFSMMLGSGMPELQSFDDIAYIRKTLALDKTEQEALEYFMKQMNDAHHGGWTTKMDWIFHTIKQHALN

PIK3CD (Human), sequence (O00329 whole entry, looked up): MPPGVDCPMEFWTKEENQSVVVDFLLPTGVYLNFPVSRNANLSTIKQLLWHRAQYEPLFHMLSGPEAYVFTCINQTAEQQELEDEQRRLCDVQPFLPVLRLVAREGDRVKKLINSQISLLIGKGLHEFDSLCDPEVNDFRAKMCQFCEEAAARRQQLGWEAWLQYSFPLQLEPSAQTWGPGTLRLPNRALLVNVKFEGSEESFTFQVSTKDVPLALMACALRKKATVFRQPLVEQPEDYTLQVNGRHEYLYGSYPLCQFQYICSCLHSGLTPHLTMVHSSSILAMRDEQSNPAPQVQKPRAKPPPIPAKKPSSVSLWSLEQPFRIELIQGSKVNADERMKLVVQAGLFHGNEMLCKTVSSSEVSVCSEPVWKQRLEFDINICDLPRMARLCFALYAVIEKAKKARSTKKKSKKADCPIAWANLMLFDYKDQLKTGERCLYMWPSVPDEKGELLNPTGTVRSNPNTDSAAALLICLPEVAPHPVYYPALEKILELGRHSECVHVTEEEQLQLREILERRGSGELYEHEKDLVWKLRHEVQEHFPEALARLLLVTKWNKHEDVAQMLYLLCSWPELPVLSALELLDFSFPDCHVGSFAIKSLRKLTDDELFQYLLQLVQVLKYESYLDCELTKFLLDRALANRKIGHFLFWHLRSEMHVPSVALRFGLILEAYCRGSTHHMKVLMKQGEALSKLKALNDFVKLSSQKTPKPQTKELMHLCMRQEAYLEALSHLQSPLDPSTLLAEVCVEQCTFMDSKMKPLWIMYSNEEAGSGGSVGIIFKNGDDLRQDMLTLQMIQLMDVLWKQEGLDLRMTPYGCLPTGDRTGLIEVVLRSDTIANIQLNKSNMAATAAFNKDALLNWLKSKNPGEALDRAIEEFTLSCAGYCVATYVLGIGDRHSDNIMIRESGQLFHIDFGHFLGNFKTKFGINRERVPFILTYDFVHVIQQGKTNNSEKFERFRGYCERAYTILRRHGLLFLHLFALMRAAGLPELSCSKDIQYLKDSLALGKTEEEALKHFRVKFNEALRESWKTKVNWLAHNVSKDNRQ
PIK3CB (Human), sequence (P42338 whole entry, looked up): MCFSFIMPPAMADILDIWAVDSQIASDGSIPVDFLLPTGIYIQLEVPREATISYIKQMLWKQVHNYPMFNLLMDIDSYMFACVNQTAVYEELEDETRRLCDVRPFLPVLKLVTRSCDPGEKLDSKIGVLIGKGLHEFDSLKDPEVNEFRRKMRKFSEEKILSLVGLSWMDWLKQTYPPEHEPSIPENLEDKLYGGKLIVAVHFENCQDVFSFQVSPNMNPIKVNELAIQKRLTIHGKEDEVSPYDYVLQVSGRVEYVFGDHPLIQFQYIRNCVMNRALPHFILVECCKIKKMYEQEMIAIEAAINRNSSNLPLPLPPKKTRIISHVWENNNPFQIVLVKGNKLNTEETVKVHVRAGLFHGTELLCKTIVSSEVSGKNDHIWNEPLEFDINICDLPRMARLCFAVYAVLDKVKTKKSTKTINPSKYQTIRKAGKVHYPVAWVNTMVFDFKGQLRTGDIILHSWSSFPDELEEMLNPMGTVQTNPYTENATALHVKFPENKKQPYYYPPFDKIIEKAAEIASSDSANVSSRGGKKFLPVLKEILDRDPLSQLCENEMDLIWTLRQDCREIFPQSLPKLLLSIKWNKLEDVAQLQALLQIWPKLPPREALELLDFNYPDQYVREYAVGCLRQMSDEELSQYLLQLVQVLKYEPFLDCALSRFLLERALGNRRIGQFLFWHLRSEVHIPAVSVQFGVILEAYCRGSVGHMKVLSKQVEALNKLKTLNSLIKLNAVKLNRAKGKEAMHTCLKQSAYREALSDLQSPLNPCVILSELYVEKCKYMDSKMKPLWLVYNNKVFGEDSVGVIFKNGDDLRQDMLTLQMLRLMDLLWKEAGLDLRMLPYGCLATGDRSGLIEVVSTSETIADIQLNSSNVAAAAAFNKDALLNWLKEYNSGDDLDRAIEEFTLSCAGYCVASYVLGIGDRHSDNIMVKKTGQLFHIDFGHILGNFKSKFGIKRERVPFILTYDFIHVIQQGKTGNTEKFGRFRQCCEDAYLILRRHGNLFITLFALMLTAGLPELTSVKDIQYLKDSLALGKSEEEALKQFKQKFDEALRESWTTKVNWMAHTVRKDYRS
PIK3CG (human), sequence (P48736 whole entry, looked up): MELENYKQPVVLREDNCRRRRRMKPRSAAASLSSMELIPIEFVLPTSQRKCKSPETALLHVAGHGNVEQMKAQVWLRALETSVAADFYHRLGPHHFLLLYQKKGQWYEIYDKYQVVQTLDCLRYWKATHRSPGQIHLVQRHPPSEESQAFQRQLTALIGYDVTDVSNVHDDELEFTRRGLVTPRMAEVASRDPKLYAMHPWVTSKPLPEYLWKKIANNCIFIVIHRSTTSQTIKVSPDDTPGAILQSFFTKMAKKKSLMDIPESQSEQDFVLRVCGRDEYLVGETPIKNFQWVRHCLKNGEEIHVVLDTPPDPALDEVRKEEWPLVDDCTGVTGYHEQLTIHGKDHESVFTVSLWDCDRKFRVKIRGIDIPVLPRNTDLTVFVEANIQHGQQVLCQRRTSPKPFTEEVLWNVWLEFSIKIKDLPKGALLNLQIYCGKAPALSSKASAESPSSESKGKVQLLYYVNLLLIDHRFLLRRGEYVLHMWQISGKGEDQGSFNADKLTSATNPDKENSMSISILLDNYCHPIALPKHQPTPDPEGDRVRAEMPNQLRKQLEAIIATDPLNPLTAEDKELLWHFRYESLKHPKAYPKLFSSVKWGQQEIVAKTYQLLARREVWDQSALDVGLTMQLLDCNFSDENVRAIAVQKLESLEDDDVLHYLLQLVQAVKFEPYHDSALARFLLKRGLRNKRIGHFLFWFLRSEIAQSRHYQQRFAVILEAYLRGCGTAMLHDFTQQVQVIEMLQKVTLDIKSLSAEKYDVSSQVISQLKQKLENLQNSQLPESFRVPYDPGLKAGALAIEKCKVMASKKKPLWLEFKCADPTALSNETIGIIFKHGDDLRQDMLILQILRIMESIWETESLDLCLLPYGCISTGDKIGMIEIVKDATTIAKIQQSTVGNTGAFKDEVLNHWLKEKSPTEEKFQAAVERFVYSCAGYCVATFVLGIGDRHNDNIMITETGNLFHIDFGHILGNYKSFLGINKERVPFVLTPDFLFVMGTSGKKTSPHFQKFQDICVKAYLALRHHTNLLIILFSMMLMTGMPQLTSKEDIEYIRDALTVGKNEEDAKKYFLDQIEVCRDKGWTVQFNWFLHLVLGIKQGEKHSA

As to `C[C@H](NC(=O)c1c(N)nn2cccnc12)c1cc2cccc(-c3cncc(NS(C)(=O)=O)c3)c2c(=O)n1-c1ccccc1`, the concentration for half-maximal inhibition (IC50) is under 100 nM against PIK3CD (Human) [1], at least 10000 nM against PIK3CB (Human), 100 to 1000 nM on PIK3CG (human) and 100 to 1000 nM against PIK3CD (Human) [2].

In the case of `C[C@H](NC(=O)c1c(N)nn2cccnc12)c1cc2cccc(N(C)C)c2c(=O)n1-c1ccccc1`, the IC50 against PIK3CA (human) was at least 10 µM; against PIK3CB (Human) it was at least 10000 nM; against PIK3CD (Human) [2], at least 10000 nM.

Regarding `C[C@H](NC(=O)c1c(N)ncc2cccnc12)c1cc2cccc(Cl)c2c(=O)n1-c1ccccc1`, the concentration for half-maximal inhibition (IC50) against PIK3CD (Human) [1] was under 100 nM; against PIK3CB (Human), 100 to 1000 nM; against PIK3CG (human), 100 to 1000 nM; against PIK3CD (Human) [2], 100 to 1000 nM.

Take `C[C@H](NC(=O)c1c(N)nn2cccnc12)c1cc2cccc(C#CCNC(=O)C3CC(=O)CC(=O)C3)c2c(=O)n1-c1ccccc1`: the IC50 was under 100 nM against PIK3CG (human) and 100 to 1000 nM against PIK3CD (Human) [2].

For the compound `CNCCn1c([C@H](C)NC(=O)c2c(N)nn3cccnc23)cc2cccc(Cl)c2c1=O`, the IC50 against PIK3CB (Human) and at PIK3CD (Human) [2] was under 100 nM throughout.

`Nc1nn2cccnc2c1C(=O)N1CCC[C@H]1c1cc2cccc(Cl)c2c(=O)n1-c1ccccc1`: the IC50 was at least 10 µM on PIK3CA (human) and at least 10000 nM on PIK3CD (Human) [2].

With `CC[C@H](NC(=O)c1c(N)nn2cccnc12)c1cc2cccc(Cl)c2c(=O)n1-c1ccccc1`, the concentration for half-maximal inhibition (IC50) is under 100 nM against PIK3CD (Human) [1], under 100 nM against PIK3CB (Human), 100 to 1000 nM against PIK3CG (human) and under 100 nM at PIK3CD (Human) [2].

Regarding `C[C@H](NC(=O)c1nc(-c2cccc(NS(C)(=O)=O)c2)cnc1N)c1cc2cccc(N3CCOCC3)c2c(=O)n1-c1ccccc1`, the half-inhibitory concentration (IC50) was at least 10 µM on PIK3CA (human), at least 10000 nM against PIK3CB (Human) and at least 10000 nM against PIK3CD (Human) [2].

On to `COC(=O)c1ncsc1-c1cccc2cc([C@H](C)NC(=O)c3c(N)nn4cccnc34)n(-c3ccccc3)c(=O)c12`, for which the 50% inhibitory concentration (IC50) was at least 10 µM on PIK3CA (human), at least 10000 nM at PIK3CB (Human) and at least 10000 nM at PIK3CD (Human) [2].

Turning to `C[C@H](NC(=O)c1c(N)nn2cccnc12)c1cc2cccc(N3CCOCC3)c2c(=O)n1-c1ccccc1`, the IC50 against PIK3CA (human) was at least 10 µM; against PIK3CB (Human) it was at least 10000 nM; on PIK3CD (Human) [2], at least 10000 nM.

In the case of `COc1cc(-c2cccc3nc([C@H](C)NC(=O)c4c(N)nn5cccnc45)n(-c4ccccc4)c(=O)c23)ccn1`, the IC50 was under 100 nM against PIK3CD (Human) [1], 0.1 to 1 µM on PIK3CA (human), under 100 nM at PIK3CG (human) and 100 to 1000 nM on PIK3CD (Human) [2].

On to `C[C@H](NC(=O)c1c(N)nn2cccnc12)c1cc2scc(Cl)c2c(=O)n1-c1ccccc1`, for which the IC50 against PIK3CD (Human) [1] was under 100 nM; against PIK3CB (Human), 100 to 1000 nM; at PIK3CG (human), under 100 nM; at PIK3CD (Human) [2], 100 to 1000 nM.

In the case of `C[C@H](NC(=O)c1c(N)nn2cccnc12)c1c(C#N)c2cccc(F)c2c(=O)n1-c1ccccc1`, the IC50 was under 100 nM at PIK3CD (Human) [1], 100 to 1000 nM against PIK3CB (Human), 100 to 1000 nM on PIK3CG (human) and 100 to 1000 nM on PIK3CD (Human) [2].

For `C=CC(=O)NCC#Cc1cccc2cc([C@H](C)NC(=O)c3c(N)nn4cccnc34)n(-c3ccccc3)c(=O)c12`, the results for the IC50 against PIK3CD (Human) [1], at PIK3CG (human) and against PIK3CD (Human) [2] were under 100 nM, under 100 nM and 100 to 1000 nM, respectively.

On to `C[C@H](NC(=O)c1nc(-c2cnn(C)c2)cnc1N)c1cc2cccc(Cl)c2c(=O)n1-c1ccccc1`, for which the half-inhibitory concentration (IC50) at PIK3CD (Human) [1] is 100 to 1000 nM; against PIK3CD (Human) [2], at least 10000 nM.

Turning to `C[C@H](NC(=O)c1c(N)nn2cccnc12)c1cc2cccc(Cl)c2c(=O)n1-c1cccc(F)c1`, the half-inhibitory concentration (IC50) at PIK3CD (Human) [1] was under 100 nM; against PIK3CB (Human) it was 100 to 1000 nM; against PIK3CG (human), under 100 nM; at PIK3CD (Human) [2] it was 100 to 1000 nM.

`C[C@H](NC(=O)c1c(N)nn2cccnc12)c1cc2cccc(O)c2c(=O)n1-c1ccccc1`: the half-maximal inhibitory concentration (IC50) against PIK3CD (Human) [1] was 100 to 1000 nM; against PIK3CA (human), at least 10 µM; against PIK3CD (Human) [2], at least 10000 nM.

For the compound `C[C@H](NC(=O)c1nccnc1N)c1nc2cccc(Cl)c2c(=O)n1-c1ccccc1`, the IC50 against PIK3CA (human) was at least 10 µM; at PIK3CG (human) it was 100 to 1000 nM; on PIK3CD (Human) [2], under 100 nM.

As to `CNc1cccc2cc([C@H](C)NC(=O)c3c(N)nn4cccnc34)n(-c3ccccc3)c(=O)c12`, the IC50 against PIK3CD (Human) [1] is 100 to 1000 nM; at PIK3CB (Human), at least 10000 nM; against PIK3CD (Human) [2], at least 10000 nM.

With `C[C@H](NC(=O)c1c(N)nn2cccnc12)c1cc2cccc(Cl)c2c(=O)n1C`, the half-maximal inhibitory concentration (IC50) at PIK3CD (Human) [1] was under 100 nM; on PIK3CB (Human), under 100 nM; against PIK3CG (human), 100 to 1000 nM; at PIK3CD (Human) [2] it was 100 to 1000 nM.

For the compound `COc1cc(-c2cccc3cc([C@H](C)NC(=O)c4c(N)nn5cccnc45)n(C4CCCCC4)c(=O)c23)ccn1`, the 50% inhibitory concentration (IC50) against PIK3CA (human) was at least 10 µM; against PIK3CB (Human), at least 10000 nM; on PIK3CD (Human) [2] it was at least 10000 nM.

Take `C[C@H](NC(=O)c1cncc2cccnc12)c1cc2cccc(Cl)c2c(=O)n1-c1ccccc1`: the values for the IC50 at PIK3CD (Human) [1], against PIK3CA (human) and against PIK3CD (Human) [2] were under 100 nM, at least 10 µM and 100 to 1000 nM, respectively.

Regarding `C[C@H](NC(=O)c1c(N)nn2cccnc12)c1c(Br)c2cccc(Cl)c2c(=O)n1-c1ccccc1`, the results for the 50% inhibitory concentration (IC50) against PIK3CD (Human) [1], on PIK3CG (human) and against PIK3CD (Human) [2] were under 100 nM, under 100 nM and 100 to 1000 nM, respectively.

Broadly, the IC50 is the midpoint of a concentration-inhibition curve.
